# Experimental data from article PMC7725003, “Systematically Studying the Optimal Amino Acid Distribution Patterns of the Amphiphilic Structure by Using the Ultrashort Amphiphiles” (Frontiers in Microbiology, 2020).
# Where no end group is shown, it is not given here.
# Experiments:
# [1] = system: all of the tested bacterial strains; assay: Geometric mean of MICs, all tested bacterial strains; type: cell-based; conditions: for GM, All: geometric mean of MICs across all tested strains
# In short: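 Mid-log bacteria at 0.5–1 × 10^6 CFU mL^–1 in MHB with peptides serially diluted in 0.2% BSA, 24 h at 37°C. MIC is the lowest concentration giving 95% growth inhibition by A492. MBC is the lowest giving >99.9% kill on agar subculture, and the GM is taken over all strains.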
# [2] = system: S. pullorum 7913; type: cell-based, Salmonella pullorum; conditions: 7913, 24 h
# In short: (§1)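 Inoculum: mid-log phase, MHB, 0.5–1 × 10^6 CFU mL^–1. Peptides: serial dilution in 0.2% BSA, equal volume. Incubation: 24 h, 37°C. Read-out: A492, MIC at 95% inhibition; MBC >99.9% kill after agar subculture.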
# [3] = system: Gram-positive bacteria; conditions: geometric mean of MBCs, 7 Gram-positive strains (Table 2)
# [4] = system: Gram-positive bacteria; conditions: for GM MIC: geometric mean of MICs, 7 Gram-positive strains (Table 2); for TI, Gram-positive bacteria: therapeutic index TI = MHC/GM MIC
# In short: (§2)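 Broth microdilution adapted from NCCLS: mid-log bacteria diluted in MHB to 0.5–1 × 10^6 CFU mL^–1, mixed with peptides serially diluted in 0.2% BSA. After 24 h at 37°C, MIC taken as the lowest concentration inhibiting 95% of growth by absorbance at 492 nm. Assays repeated more than 3 times.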
# [5] = system: Gram-negative bacteria; conditions: for GM MIC: geometric mean of MICs, 9 Gram-negative strains (Table 2); for TI, Gram-negative bacteria: therapeutic index TI = MHC/GM MIC
# In short: as §2
# [6] = system: S. epidermidis 12228; type: cell-based, Staphylococcus epidermidis; conditions: 12228, 24 h
# In short: as §1
# [7] = system: Listeria monocytogenes CGMCC 1.1075; type: cell-based; conditions: CGMCC 1.1075, 24 h
# In short: as §1
# [8] = system: E. coli O78; type: cell-based, Escherichia coli; conditions: O78, 24 h
# In short: as §1
# [9] = system: E. coli UB1005; type: cell-based, Escherichia coli; conditions: UB1005, 24 h
# In short: as §1
# [10] = system: E. coli 25922; type: cell-based, Escherichia coli; conditions: 25922, 24 h
# In short: as §1
# [11] = system: S. typhimurium 7731; type: cell-based, Salmonella typhimurium; conditions: 7731, 24 h
# In short: as §1
# [12] = system: S. typhimurium 14028; type: cell-based, Salmonella typhimurium; conditions: 14028, 24 h
# In short: as §1
# [13] = system: S. aureus 29213; type: cell-based, Staphylococcus aureus; conditions: 29213, 24 h
# In short: as §1
# [14] = system: S. aureus 25923; type: cell-based, Staphylococcus aureus; conditions: 25923, 24 h
# In short: as §1
# [15] = system: MRSA 43300; type: cell-based, methicillin-resistant S. aureus; conditions: 43300, 24 h
# In short: as §1
# [16] = system: S. aureus 29213; assay: Salt sensitivity assay (MIC); type: cell-based, Staphylococcus aureus; conditions: for MIC, FeCl3: 4 μM FeCl3; for MIC, NH4Cl: 6 μM NH4Cl; for MIC, ZnCl2: 8 μM ZnCl2; for MIC, MgCl2: 1 mM MgCl2; for MIC, CaCl2: 2 mM CaCl2; for MIC, KCl: 4.5 mM KCl; for MIC, NaCl: 150 mM NaCl
# In short: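 MICs determined by broth microdilution in MHB with 0.5–1 × 10^6 CFU/mL, peptides serially diluted in 0.2% BSA, 24 h at 37°C. Medium supplemented with physiological salts (150 mM NaCl, 4.5 mM KCl, 6 μM NH4Cl, 8 μM ZnCl2, 1 mM MgCl2, 2mM CaCl2, 4 μM FeCl3). MIC = lowest concentration inhibiting 95% growth (A492).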
# [17] = system: E. faecalis 29212; type: cell-based, Enterococcus faecalis; conditions: 29212, 24 h
# In short: as §1
# [18] = system: Gram-negative bacteria; conditions: geometric mean of MBCs, 9 Gram-negative strains (Table 2)
# [19] = system: B. subtilis 63501; type: cell-based, Bacillus subtilis; conditions: 63501, 24 h
# In short: as §1
# [20] = system: P. aeruginosa 27853; type: cell-based, Pseudomonas aeruginosa; conditions: 27853, 24 h
# In short: as §1
# [21] = system: E. coli ATCC 25922; assay: Salt sensitivity assay (MIC); type: cell-based, Escherichia coli; conditions: for MIC, FeCl3: 4 μM FeCl3; for MIC, NH4Cl: 6 μM NH4Cl; for MIC, ZnCl2: 8 μM ZnCl2; for MIC, MgCl2: 1 mM MgCl2; for MIC, CaCl2: 2 mM CaCl2; for MIC, KCl: 4.5 mM KCl; for MIC, NaCl: 150 mM NaCl; for MIC, Control: no added salt, three independent assays
# In short: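 The salt sensitivity of peptides was tested against E. coli ATCC 25922 using a modified NCCLS broth microdilution MIC method. Mid-log bacteria were diluted in MHB to 0.5–1 × 10^6 CFU mL^–1 and mixed in equal volumes with peptides serially diluted in 0.2% BSA in 96-well plates. Physiological salt was added where specified, and the assay was done three independent times.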
# [22] = system: E. coli K88; conditions: for MIC: MHB, 24 h 37°C, 95% growth inhibition
# Experimental: (§3) The antimicrobial activities of the peptides were measured using a method adapted from the National Committee for Clinical Laboratory Standards (NCCLS) with some modifications ([Chou et al., 2016]). The specific procedure for these assays has been previously described. In brief, the bacterial cells were grown to a mid-logarithmic phase and diluted in MHB to an ultimate concentration of 0.5–1 × 10^6 CFU mL^–1. Subsequently, the peptides were consecutively diluted in a 0.2% BSA solution and then added to a bacterial solution in a 96-well plate at identical volumes. After incubation for 24 h at 37°C, the MICs were determined to be the lowest peptide concentration that inhibited 95% of the bacterial growth by monitoring the absorbance at 492 nm using a microplate reader. Subsequently, 50 μL of each incubation mixture was further transferred to agar plates and incubated overnight. […] Every assay was reproduced more than 3 times.
# [23] = system: E. coli K99; conditions: for MIC: MHB, 24 h 37°C, 95% growth inhibition
# Experimental: as §3
# [24] = value in brackets, >99.9% of cells killed
substance,measurement,setting,value
LLLRRRRLL-NH2 [L4],"GM, All",[1],107.63 µM
same,"TI, All",[1]; therapeutic index TI = MHC/GM MIC,2.38
same,MIC,[2],>64 µM
same,GM MBC,[3],95.10 µM
same,GM MIC,[4],86.14 µM
same,"TI, Gram-positive bacteria",[4],2.97
same,"GM, Gram-negative bacteria",[5]; geometric mean of MICs (Table 3),128.00 µM
same,GM MIC,[5],128 µM
same,"TI, Gram-negative bacteria",[5],2.00
same,MIC,[6],> 64 µM
same,MIC,[7],>64 µM
same,MIC,[8],>64 µM
same,MIC,[9],>64 µM
same,MIC,[10],> 64 µM
same,MIC,[11],> 64 µM
same,MIC,[12],> 64 µM
same,MIC,[13],>64 µM
same,MIC,[14],> 64 µM
same,MIC,[15],>64 µM
same,"MIC, FeCl3",[16],> 64 µM
same,"MIC, NH4Cl",[16],> 64 µM
same,"MIC, ZnCl2",[16],> 64 µM
same,"MIC, MgCl2",[16],> 64 µM
same,"MIC, CaCl2",[16],> 64 µM
same,"MIC, KCl",[16],> 64 µM
same,"MIC, NaCl",[16],> 64 µM
same,"MIC, Control","[16]; no added salt, three independent assays",> 64 µM
same,MIC,[17],> 64 µM
same,GM MBC,[18],128 µM
same,MBC,[19],16 µM
same,MIC,[19],8 µM
same,MIC,[20],> 64 µM
same,"MIC, FeCl3",[21],> 64 µM
same,"MIC, NH4Cl",[21],> 64 µM
same,"MIC, ZnCl2",[21],> 64 µM
same,"MIC, MgCl2",[21],> 64 µM
same,"MIC, CaCl2",[21],> 64 µM
same,"MIC, KCl",[21],> 64 µM
same,"MIC, NaCl",[21],> 64 µM
same,"MIC, Control",[21],> 64 µM
same,MIC,[22],>64 µM
same,MIC,[23],> 64 µM
LLRLLRRRL-NH2 [L1],"GM, All",[1],16.71 µM
same,MBC,[2],16 µM
same,MIC,[2],8 µM
same,GM MBC,[3],39.01 µM
same,GM MIC,[4],21.53 µM
same,"TI, Gram-positive bacteria",[4],2.97
same,GM MIC,[5],13.72 µM
same,"TI, Gram-negative bacteria",[5],18.66
same,MBC,[6],32 µM
same,MIC,[6],16 µM
same,MIC,[7],> 64 µM
same,MBC,[8],16 µM
same,MIC,[8],8 µM
same,MBC,[9],32 µM
same,MIC,[9],16 µM
same,MBC,[10],16 µM
same,MIC,[10],8 µM
same,MBC,[11],32 µM
same,MIC,[11],16 µM
same,MBC,[12],32 µM
same,MIC,[12],16 µM
same,MBC,[13],32 µM
same,MIC,[13],16 µM
same,MBC,[14],64 µM
same,MIC,[14],32 µM
same,MBC,[15],32 µM
same,MIC,[15],16 µM
same,"MIC, FeCl3",[16],> 64 µM
same,"MIC, NH4Cl",[16],64 µM
same,"MIC, ZnCl2",[16],64 µM
same,"MIC, MgCl2",[16],64 µM
same,"MIC, CaCl2",[16],> 64 µM
same,"MIC, KCl",[16],64 µM
same,"MIC, NaCl",[16],> 64 µM
same,MBC,[17],128 µM
same,MIC,[17],64 µM
same,GM MBC,[18],25.40 µM
same,MBC,[19],4 µM
same,MIC,[19],2 µM
same,MIC,[20],> 64 µM
same,"MIC, FeCl3",[21],4 µM
same,"MIC, NH4Cl",[21],4 µM
same,"MIC, ZnCl2",[21],8 µM
same,"MIC, MgCl2",[21],8 µM
same,"MIC, CaCl2",[21],32 µM
same,"MIC, KCl",[21],16 µM
same,"MIC, NaCl",[21],64 µM
same,"MIC, Control",[21],8 µM
same,MIC,[22],8 µM
same,MBC,[22]; [24],16 µM
same,MIC,[23],8 µM
same,MBC,[23]; [24],16 µM
